Results as given in patent US20060069010A1, “Detoxification depot for Alzheimer's disease” (Senicure LLC, priority 2003, published 2006).
Square brackets hold non-standard residues; d marks the D form. Ends that are not written are not given here.

How the values were obtained:
[1] = system: Aβ; details: after 1 day of treatment; on the order of 500 ng/g tissue; cited from earlier work
[2] = system: nt-bAP; details: according to the thioflavin assay (Zhang et al.); cited from earlier work
[3] = target: T1, biotinylated Aβ^1-40 peptide (Homo sapiens, UniProt P05067); assay: direct ELISA, plate-immobilised capture peptide probed with biotinylated Aβ peptide; format: binding; details: 1 μg/well capture peptide, 1 μg/ml biotinylated Aβ, 2 hours; compared to scrambled or irrelevant control peptide (FIG. 1a)
T1 construct: biotinylated Aβ^1-40 peptide (1.7 μg/ml) at 37° C; purchased
Procedure: (§1) FIG. 1a graphically illustrates binding of biotinylated Aβ^1-42 and biotinylated Aβ^1-40 peptide by RI peptide. 96-well plate was coated with the capture peptide (1 μg/well of retro-inverso [RI], scrambled [SCR] or an irrelevant control peptide), blocked with gelatin and probed with 1 μg/ml of biotinylated Aβ peptide for 2 hours and streptavidin peroxidase for 1 hour. Experiments were repeated and were calculated as Mean±SE (N=2) and expressed as pmols Aβ^1-42/ml of binding solution. Graded concentrations of biotinylated Aβ^1-42 peptide was used as a calibration standard.
(§2) Testing the binding and stability of biotinylated Aβ peptides in binding solution. The ability of the biotinylated, nt-bAP, which is represented by Aβ peptides (1-42 and 1-40) to bind the binding element, the retro inverso peptide (RI) was investigated on a direct ELISA as described at the end of this section. RI, scrambled or an irrelevant peptide, immobilized on an ELISA plate was allowed to bind biotinylated Aβ peptides, 1-42 or 1-40.

[4] = target: T2, biotinylated Aβ^1-42 peptide (Homo sapiens, UniProt P05067); assay: as above; format: binding; details: 1 μg/well capture peptide, 1 μg/ml biotinylated Aβ, 2 hours; compared to scrambled or irrelevant control peptide (FIG. 1a)
T2 construct: biotinylated Aβ^1-42 peptide (1.7 μg/ml) at 37° C; purchased
Procedure: as §1, §2

Chain of Aβ (P05067 672-711 limits assumed): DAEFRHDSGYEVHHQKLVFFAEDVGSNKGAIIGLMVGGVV
T1 sequence (P05067 672-711): as the sequence (P05067 672-711 limits assumed) above
Chain of nt-bAP (P05067 672-711 limits assumed): as above
T2 sequence (P05067 672-713): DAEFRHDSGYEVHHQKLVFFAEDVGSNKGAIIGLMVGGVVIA

GM1
levels of Aβ in brain [1]: reduced in half

gelsolin
levels of Aβ in brain [1]: reduced in half

phe-phe-val-leu-lys [ffvlk]
toxicity of aggregates of binding element with nt-bAP [2]: less toxic than nt-bAP itself

phe-phe-val-leu-lys-Cys ([dF][dF][dV][dL][dK][dC]-NH2; not fully specified; printed as phe-phe-val-leu-lys-Cys) [RI peptide]
binding of biotinylated Aβ^1-40 by capture peptide [3]: significant and specific binding | binding of biotinylated Aβ^1-42 by capture peptide [4]: significant and specific binding
